Among the data in BindingDB's records for doi:10.1111/cbdd.12198 (Shanghai Institute of Pharmaceutical Industry, 2014) are IC50 values, retold here.

The target in assay [1] is Serine/threonine-protein kinase B-raf (Homo sapiens, UniProt P15056). The assay is described as follows: Biochemical Assay. Particulars: pH 7.5; 25 °C. Here is the method: (§1) Compounds were prepared in DMSO at 10mmol/L and serially diluted in a 96-well plate as the source plate. The intermediate plate consists of 4µL from the source plate mixed with 96µL of 1× kinase buffer (50mmol/L HEPES, pH 7.5; 10mmol/L MgCl2; 1mmol/L EGTA; 0.01% Brij-35). Of 2.5µL was transferred to a 384-well assay plate in duplicates. To the assay plate, 5µL of BRAF 7nmol/L or BRAF V600E 0.7nmol/L, 2.5µL of substrate solution containing Fluorescein-MAP2K1 0.8µmol/L and ATP (for BRAF 2µmol/L, for BRAF V600E 6µmol/L) were added and the assay plate was incubated with the compounds for 1 h at room temperature. The reaction was stopped with the addition of 10µL of detection solution (antibody 4nmol/L and EDTA 20mmol/L in antibody dilution buffer) to each well of the assay plate.

Assay [2] has as its target Serine/threonine-protein kinase B-raf [V600E] (Homo sapiens, UniProt P15056, V600E). The assay is described as follows: Biochemical Assay. Conditions: pH 7.5; 25 °C. On the procedure:
as §1

Chain of Serine/threonine-protein kinase B-raf (P15056 whole entry): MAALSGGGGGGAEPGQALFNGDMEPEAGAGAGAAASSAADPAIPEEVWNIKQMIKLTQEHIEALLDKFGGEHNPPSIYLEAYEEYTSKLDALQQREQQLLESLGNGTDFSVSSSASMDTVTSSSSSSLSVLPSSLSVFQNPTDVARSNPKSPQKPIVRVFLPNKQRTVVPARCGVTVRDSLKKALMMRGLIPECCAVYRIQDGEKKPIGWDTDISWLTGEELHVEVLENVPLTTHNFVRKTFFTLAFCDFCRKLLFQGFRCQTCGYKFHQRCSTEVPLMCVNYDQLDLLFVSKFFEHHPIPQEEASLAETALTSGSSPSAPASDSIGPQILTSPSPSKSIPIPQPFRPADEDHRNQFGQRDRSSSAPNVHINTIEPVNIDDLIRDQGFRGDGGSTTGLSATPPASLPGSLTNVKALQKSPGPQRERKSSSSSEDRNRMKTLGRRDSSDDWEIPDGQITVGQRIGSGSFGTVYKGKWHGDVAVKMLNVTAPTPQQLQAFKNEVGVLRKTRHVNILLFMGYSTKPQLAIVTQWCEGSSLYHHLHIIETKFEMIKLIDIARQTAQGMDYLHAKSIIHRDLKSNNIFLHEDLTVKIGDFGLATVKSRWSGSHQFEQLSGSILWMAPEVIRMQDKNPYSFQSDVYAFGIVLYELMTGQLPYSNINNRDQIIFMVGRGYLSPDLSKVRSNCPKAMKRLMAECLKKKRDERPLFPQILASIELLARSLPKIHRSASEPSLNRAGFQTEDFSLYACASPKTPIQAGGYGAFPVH
Chain of Serine/threonine-protein kinase B-raf [V600E] (P15056 2-766 V600E limits assumed): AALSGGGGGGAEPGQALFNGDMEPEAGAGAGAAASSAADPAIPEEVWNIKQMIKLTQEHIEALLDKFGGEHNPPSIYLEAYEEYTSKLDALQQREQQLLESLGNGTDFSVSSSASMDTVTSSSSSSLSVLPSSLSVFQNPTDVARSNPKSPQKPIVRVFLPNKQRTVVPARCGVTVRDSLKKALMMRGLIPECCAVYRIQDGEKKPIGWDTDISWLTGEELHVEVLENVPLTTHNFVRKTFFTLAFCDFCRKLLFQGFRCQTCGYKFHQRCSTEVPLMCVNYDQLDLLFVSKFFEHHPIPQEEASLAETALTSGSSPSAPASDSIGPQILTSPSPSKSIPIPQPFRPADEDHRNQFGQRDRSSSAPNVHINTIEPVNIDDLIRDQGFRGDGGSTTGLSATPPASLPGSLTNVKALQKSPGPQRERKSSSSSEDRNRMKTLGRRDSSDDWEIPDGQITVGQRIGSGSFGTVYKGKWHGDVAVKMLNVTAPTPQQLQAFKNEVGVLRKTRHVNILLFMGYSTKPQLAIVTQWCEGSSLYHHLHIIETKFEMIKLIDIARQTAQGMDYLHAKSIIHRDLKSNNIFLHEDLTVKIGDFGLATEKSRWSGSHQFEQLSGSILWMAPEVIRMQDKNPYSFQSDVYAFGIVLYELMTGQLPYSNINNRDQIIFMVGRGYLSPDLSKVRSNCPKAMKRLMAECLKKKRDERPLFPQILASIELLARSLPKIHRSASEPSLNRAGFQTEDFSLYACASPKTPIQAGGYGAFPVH

As a reminder, the IC50 is the concentration at which inhibition is half-maximal. As for `Cc1nc(Cl)cc(Nc2cccc(NC(=O)Nc3ccc(Cl)c(C(F)(F)F)c3)c2)n1` [1-(3-(6-Chloro-2-methylpyrimidin-4-ylamino)phenyl)-3-(4-chloro-3-(trifluoromethyl)phenyl)urea (Compound 1)], the 50% inhibitory concentration (IC50) in assay [1] is 722 nM; in assay [2] it was 298 nM.
`Cc1nc(Nc2cccc(NC(=O)Nc3ccc(F)c(Cl)c3)c2)cc(N2CCOCC2)n1` [1-(3-Chloro-4-fluorophenyl)-3-(3-(2-methyl-6-morpholinopyrimidin-4-ylamino)phenyl)urea (Compound 2)]: the IC50 in assay [1] was found to be 1070 nM; in assay [2], 626 nM.
For `Cc1nc(N2CCOCC2)cc(N(C)c2cccc(NC(=O)Nc3ccc(F)c(Cl)c3)c2)n1` [1-(3-Chloro-4-fluorophenyl)-3-(3-(methyl (2-methyl-6-morpholinopyrimidin-4-yl)amino)phenyl)urea (Compound 5)], the IC50 in assay [1] stood at 366 nM; in assay [2], 232 nM.
With `Cc1nc(Nc2cccc(NC(=O)Nc3ccc(Cl)c(C(F)(F)F)c3)c2)cc(N2CCN(C)CC2)n1` [1-(4-Chloro-3-(trifluoromethyl)phenyl)-3-(3-(2-methyl-6-(4-methylpiperazin-1-yl)pyrimidin-4-ylamino)phenyl)urea (Compound 4)], the IC50 in assay [1] is above 10000 nM; in assay [2], 7170 nM.
In the case of `Cc1nc(Nc2cccc(NC(=O)Nc3ccc(Cl)c(C(F)(F)F)c3)c2)cc(N2CCOCC2)n1` [1-(4-Chloro-3-(trifluoromethyl)phenyl)-3-(3-(2-methyl-6-morpholinopyrimidin-4-ylamino)phenyl) urea (Compound 3)], the concentration for half-maximal inhibition (IC50) in assay [1] worked out at 271 nM; in assay [2], 142 nM.
Take `Cc1nc(N2CCN(C)CC2)cc(N(C)c2cccc(NC(=O)Nc3ccc(Cl)c(C(F)(F)F)c3)c2)n1` [1-(4-Chloro-3-(trifluoromethyl)phenyl)-3-(3-(methyl (2-methyl-6-(4-methylpiperazin-1-yl)pyrimidin-4-yl)amino)phenyl)urea (Compound 7)]: the 50% inhibitory concentration (IC50) in assay [1] worked out at 5280 nM; in assay [2], 4990 nM.
As to `Cc1nc(N2CCOCC2)cc(N(C)c2cccc(NC(=O)Nc3ccc(Cl)c(C(F)(F)F)c3)c2)n1` [1-(4-Chloro-3-(trifluoromethyl)phenyl)-3-(3-(methyl (2-methyl-6-morpholinopyrimidin-4-yl)amino)phenyl)urea (Compound 6)], the IC50 in assay [1] and in assay [2] was 1370 nM throughout.
